Test results from patent publication US8536354B2, “Steroidal ligands and their use in gene switch modulation” (Intrexon Corporation, priority 2008, dated 2013).
Like-named read-outs stand apart in the source and are kept apart here.

How the values were obtained:
[1] = system: Nephotettix cincticeps EcR (NcEcR-DEF); assay: Two-hybrid gene switch assay, NcEcR-DEF in NIH3T3 cells; details: for rel max FI (20E), NC: max fold induction at any concentration relative to 20E; for rel max FI (PoA), NC: max fold induction at any concentration relative to PoA; for EC50: read-out: EC50 (μM), NC, NIH3T3 cells, luciferase, 48 h, ligand 0.01-33 μM
[2] = biological target: T1, Amblyomma americanum EcR (AmaEcR-DEF) (Amblyomma americanum, UniProt O44338); assay: Two-hybrid gene switch assay, AmaEcR-DEF in NIH3T3 cells; details: for Emax: NIH3T3, 48 h
T1 sequence (O44338 291-570): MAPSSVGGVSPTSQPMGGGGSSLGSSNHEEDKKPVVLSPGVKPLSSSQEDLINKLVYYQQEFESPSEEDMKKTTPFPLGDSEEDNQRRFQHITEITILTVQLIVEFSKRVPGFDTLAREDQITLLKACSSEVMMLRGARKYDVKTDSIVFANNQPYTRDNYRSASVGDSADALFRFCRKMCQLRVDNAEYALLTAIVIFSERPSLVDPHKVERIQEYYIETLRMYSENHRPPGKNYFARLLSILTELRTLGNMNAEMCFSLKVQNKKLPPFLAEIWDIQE
T1 sequence (P28702 299-449 partner): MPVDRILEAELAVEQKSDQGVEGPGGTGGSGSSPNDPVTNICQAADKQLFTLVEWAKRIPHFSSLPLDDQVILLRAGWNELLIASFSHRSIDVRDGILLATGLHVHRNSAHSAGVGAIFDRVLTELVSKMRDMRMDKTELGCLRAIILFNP

[3] = biological target: T2, wild-type Aedes aegypti EcR (AaEcR-DEF) (Aedes aegypti, UniProt P49880); assay: Two-hybrid gene switch assay, AaEcR-DEF in NIH3T3 cells; details: AaEcR; for rel max FI (20E), AA: max fold induction at any concentration relative to 20E; for rel max FI (PoA), AA: max fold induction at any concentration relative to PoA; for EC50: NIH3T3 cells, luciferase, 48 h, ligand 0.01-33 μM
T2 sequence (P49880 405-776 limits assumed): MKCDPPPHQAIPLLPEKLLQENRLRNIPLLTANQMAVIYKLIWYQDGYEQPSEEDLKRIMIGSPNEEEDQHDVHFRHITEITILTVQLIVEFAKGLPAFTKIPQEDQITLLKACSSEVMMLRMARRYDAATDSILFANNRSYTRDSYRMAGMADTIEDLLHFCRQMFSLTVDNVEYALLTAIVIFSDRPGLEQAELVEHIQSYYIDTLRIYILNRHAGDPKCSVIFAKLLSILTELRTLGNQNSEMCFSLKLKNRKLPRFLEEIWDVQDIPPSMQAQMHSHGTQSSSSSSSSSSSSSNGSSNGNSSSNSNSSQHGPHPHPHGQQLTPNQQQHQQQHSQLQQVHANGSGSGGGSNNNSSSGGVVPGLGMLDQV

[4] = read-out: rel max FI (20E), AMA
[5] = read-out: rel max FI (PoA), AMA

**Q.** `COC1C[C@H]2C(=O)C=C3[C@H](CC[C@]4(C)[C@@H]([C@@](C)(O)C(CCC(C)(C)O)OC)CC[C@@]34OC)[C@@]2(C)CC1OC` (stereo partly drawn) [20E-2,3,14,22-tetramethyl ether] was tested. Which “rel max FI (20E), NC” value [1] did it give?
**A.** Its value is 0.01.

**Q.** And the “rel max FI (PoA), NC” value [1]?
**A.** Its value is 0.01.

**Q.** And the EC50 [1]?
**A.** Its EC50 is > 33 µM.

**Q.** And the “rel max FI (20E), AMA” value ([2]; AmaEcR, max fold induction at any concentration relative to 20E)?
**A.** Its value is 0.34.

**Q.** And the “rel max FI (PoA), AMA” value ([2]; AmaEcR, max fold induction at any concentration relative to PoA)?
**A.** Its value is 0.26.

**Q.** What about the EC50 ([2]; read-out: EC50 (μM), AMA, AmaEcR, NIH3T3 cells, luciferase, 48 h, ligand 0.01-33 μM) of the same compound?
**A.** The EC50 was > 33 µM.

**Q.** And the “rel max FI (20E), AA” value [3]?
**A.** The value was 0.07.

**Q.** What about the “rel max FI (PoA), AA” value [3] of the same compound?
**A.** The value was 0.02.

**Q.** What about the EC50 ([3]; read-out: EC50 (μM), AA) of the same compound?
**A.** The EC50 was > 33 µM.

**Q.** How did the “rel max FI (20E), NC” value [1] turn out when `CO[C@@H]1C[C@H]2C(=O)C=C3[C@H](CC[C@]4(C)[C@@H]([C@@](C)(O)[C@H](O)CCC(C)(C)O)CC[C@@]34O)[C@@]2(C)C[C@@H]1O` [20E-3-methyl ether] was run?
**A.** Its value is 1.01.

**Q.** What about the “rel max FI (PoA), NC” value [1] of the same compound?
**A.** Its value is 1.04.

**Q.** What about the EC50 [1] of the same compound?
**A.** Its EC50 is 1.69 µM.

**Q.** And the EC50 [2]?
**A.** The EC50 was ~3.3 µM.

**Q.** And the Emax [2, 4]?
**A.** Its Emax is 91%.

**Q.** And the Emax [2, 5]?
**A.** Its Emax is 70%.

**Q.** And the “rel max FI (20E), AA” value [3]?
**A.** The value was 1.75.

**Q.** What about the “rel max FI (PoA), AA” value [3] of the same compound?
**A.** Its value is 0.60.

**Q.** And the EC50 ([3]; EC50 (μM), AA)?
**A.** Its EC50 is ~10 µM.

**Q.** How did the “rel max FI (20E), NC” value [1] turn out when `CO[C@@H]1C[C@H]2C(=O)C=C3[C@H](CC[C@]4(C)[C@@H]([C@@](C)(O)[C@@H](CCC(C)(C)O)OC)CC[C@@]34O)[C@@]2(C)C[C@@H]1O` [20E-3,22-dimethyl ether] was run?
**A.** Its value is 1.03.

**Q.** What about the “rel max FI (PoA), NC” value [1] of the same compound?
**A.** Its value is 1.06.

**Q.** And the EC50 [1]?
**A.** Its EC50 is ~8 µM.

**Q.** What about the EC50 [2] of the same compound?
**A.** Its EC50 is ~2 µM.

**Q.** And the Emax [2, 4]?
**A.** Its Emax is 104%.

**Q.** What about the Emax [2, 5] of the same compound?
**A.** Its Emax is 80%.

**Q.** And the “rel max FI (20E), AA” value [3]?
**A.** The value was 2.32.

**Q.** And the “rel max FI (PoA), AA” value [3]?
**A.** Its value is 0.79.

**Q.** What about the EC50 ([3]; EC50 (μM), AA) of the same compound?
**A.** Its EC50 is 7.15 µM.

**Q.** Which “rel max FI (20E), NC” value [1] does the source give for `CO[C@H]1C[C@@]2(C)[C@@H](C[C@H]1O)C(=O)C=C1[C@@H]2CC[C@]2(C)[C@@H]([C@@](C)(O)[C@@H](CCC(C)(C)O)OC)CC[C@@]12O` [20E-2,22-dimethyl ether] here?
**A.** Its value is 0.84.

**Q.** And the “rel max FI (PoA), NC” value [1]?
**A.** The value was 0.86.

**Q.** And the EC50 [1]?
**A.** Its EC50 is ~10 µM.

**Q.** And the EC50 [2]?
**A.** The EC50 was ~8 µM.

**Q.** What about the Emax [2, 4] of the same compound?
**A.** Its Emax is 94%.

**Q.** What about the Emax [2, 5] of the same compound?
**A.** The Emax was 72%.

**Q.** What about the “rel max FI (20E), AA” value [3] of the same compound?
**A.** Its value is 2.34.

**Q.** What about the “rel max FI (PoA), AA” value [3] of the same compound?
**A.** Its value is 0.80.

**Q.** What about the EC50 ([3]; EC50 (μM), AA) of the same compound?
**A.** The EC50 was ~8 µM.

**Q.** With `CO[C@H]1C[C@@]2(C)[C@@H](C[C@H]1O)C(=O)C=C1[C@@H]2CC[C@]2(C)[C@@H]([C@@](C)(O)[C@H](O)CCC(C)(C)O)CC[C@@]12O` [20E-2-methyl ether] as the compound, how does the “rel max FI (20E), NC” value [1] read?
**A.** The value was 0.82.

**Q.** And the “rel max FI (PoA), NC” value [1]?
**A.** The value was 0.84.

**Q.** And the EC50 [1]?
**A.** The EC50 was ~8 µM.

**Q.** What about the EC50 [2] of the same compound?
**A.** Its EC50 is ~10 µM.

**Q.** What about the Emax [2, 4] of the same compound?
**A.** Its Emax is 65%.

**Q.** And the Emax [2, 5]?
**A.** Its Emax is 50%.

**Q.** What about the “rel max FI (20E), AA” value [3] of the same compound?
**A.** Its value is 0.87.

**Q.** And the “rel max FI (PoA), AA” value [3]?
**A.** The value was 0.30.

**Q.** What about the EC50 ([3]; EC50 (μM), AA) of the same compound?
**A.** Its EC50 is ~10 µM.

**Q.** `CO[C@H](CCC(C)(C)O)[C@](C)(O)C1CC[C@@]2(O)C3=CC(=O)C4C[C@@H](O)[C@@H](O)CC4(C)C3CCC12C` (stereo partly drawn) [20E-22-methyl ether] was tested. Which “rel max FI (20E), NC” value [1] did it give?
**A.** The value was 1.02.

**Q.** What about the “rel max FI (PoA), NC” value [1] of the same compound?
**A.** The value was 1.05.

**Q.** And the EC50 [1]?
**A.** The EC50 was 2.59 µM.

**Q.** What about the EC50 [2] of the same compound?
**A.** The EC50 was ~1 µM.

**Q.** And the Emax [2, 4]?
**A.** Its Emax is 108%.

**Q.** And the Emax [2, 5]?
**A.** The Emax was 83%.

**Q.** And the “rel max FI (20E), AA” value [3]?
**A.** Its value is 2.52.

**Q.** What about the “rel max FI (PoA), AA” value [3] of the same compound?
**A.** The value was 0.86.

**Q.** And the EC50 ([3]; EC50 (μM), AA)?
**A.** Its EC50 is 1.04 µM.
